Legend:
Assay in all cases: Ras-Raf disruption / FRET / MOA assay (BRAF RBD)
Assay type in all cases: biochemical
KRAS G12C = KRAS G12C (Homo sapiens, UniProt P01116+P62937, G12C); details: Ras-Raf disruption, with Cyclophilin A; read-out: KRAS G12C FRET data IC50
Method in brief: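 TR-FRET read-out after 1.5 h with anti-His Eu-W1024 (10 nM) and anti-GST APC (50 nM), following 3 h at 25 °C of compound (top 30 μM, 3-fold, 10 points) with 25 μM Cyclophilin A, 12.5 nM GMPPNP-loaded K-Ras G12C and 50 nM BRAF RBD; IC50 reported.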

KRAS G12S = KRAS G12S (Homo sapiens, UniProt P01116+P62937, G12S); details: Ras-Raf disruption, with Cyclophilin A; read-out: KRAS G12S FRET data IC50
Sequence of KRAS G12S (P01116 1-169 isoform P01116-2 G12S limits assumed): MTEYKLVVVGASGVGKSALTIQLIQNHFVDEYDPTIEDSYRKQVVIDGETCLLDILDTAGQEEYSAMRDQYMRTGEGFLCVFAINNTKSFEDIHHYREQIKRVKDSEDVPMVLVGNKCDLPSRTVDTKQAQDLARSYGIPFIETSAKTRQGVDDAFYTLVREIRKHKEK
Sequence of KRAS G12S (P62937 whole entry): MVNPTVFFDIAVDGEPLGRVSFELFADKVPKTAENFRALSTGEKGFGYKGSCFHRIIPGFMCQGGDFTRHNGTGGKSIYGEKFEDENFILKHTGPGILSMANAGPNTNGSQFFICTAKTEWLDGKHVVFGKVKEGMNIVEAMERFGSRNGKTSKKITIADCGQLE
Method in brief: (§1)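 Compound-induced Ras–Cyclophilin A ternary complex disrupting BRAF RBD binding, read as IC50 from reduced TR-FRET ratio relative to DMSO. Final: Ras-GMPPNP 12.5 nM, BRAF RBD 50 nM, Cyclophilin A 25 μM, top compound 30 μM (3-fold, 10 points); 3 h at 25 °C, then 1.5 h with detection antibodies.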

KRAS G13D = KRAS G13D (Homo sapiens, UniProt P01116+P62937, G13D); details: Ras-Raf disruption, with Cyclophilin A; read-out: KRAS G13D FRET data IC50
Sequence of KRAS G13D (P01116 1-169 isoform P01116-2 G13D limits assumed): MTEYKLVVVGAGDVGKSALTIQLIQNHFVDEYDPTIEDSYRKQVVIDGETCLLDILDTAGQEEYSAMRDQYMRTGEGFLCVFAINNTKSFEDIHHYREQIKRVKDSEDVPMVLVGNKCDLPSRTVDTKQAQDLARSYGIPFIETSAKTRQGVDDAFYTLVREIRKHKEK
Sequence of KRAS G13D (P62937 whole entry): as the sequence (P62937 whole entry) above
Method in brief: as §1

KRAS WT = KRAS WT (Homo sapiens, UniProt P01116+P62937); details: Ras-Raf disruption, with Cyclophilin A; read-out: KRAS WT FRET data IC50
Sequence of KRAS WT (P01116 1-169 isoform P01116-2 limits assumed): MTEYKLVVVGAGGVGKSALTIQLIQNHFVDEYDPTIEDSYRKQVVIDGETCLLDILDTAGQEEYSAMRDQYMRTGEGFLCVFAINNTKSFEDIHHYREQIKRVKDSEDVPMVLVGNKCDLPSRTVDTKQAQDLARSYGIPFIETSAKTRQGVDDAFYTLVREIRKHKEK
Sequence of KRAS WT (P62937 whole entry): as the sequence (P62937 whole entry) above
Method in brief: as §1

NRAS Q61K = NRAS Q61K (Homo sapiens, UniProt P01111+P62937, Q61K); details: NRAS Q61K; read-out: NRAS Q61K FRET data IC50
Sequence of NRAS Q61K (P01111 whole entry Q61K): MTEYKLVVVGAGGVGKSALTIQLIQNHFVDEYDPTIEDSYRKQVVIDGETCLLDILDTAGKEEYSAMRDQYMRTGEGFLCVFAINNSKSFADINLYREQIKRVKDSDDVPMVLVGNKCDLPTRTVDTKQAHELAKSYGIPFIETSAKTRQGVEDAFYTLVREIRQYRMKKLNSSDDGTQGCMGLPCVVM
Sequence of NRAS Q61K (P62937 whole entry): as the sequence (P62937 whole entry) above
Method in brief: as §1

NRAS WT = NRAS WT (Homo sapiens, UniProt P01111+P62937); details: NRAS WT; read-out: NRAS WT FRET data IC50
Sequence of NRAS WT (P01111 whole entry): as the sequence (P01111 whole entry Q61K) above, with K61Q counted along it
Sequence of NRAS WT (P62937 whole entry): as the sequence (P62937 whole entry) above
Method in brief: as §1

KRAS G12D = KRAS G12D (Homo sapiens, UniProt P01116+P62937, G12D); details: Ras-Raf disruption, with Cyclophilin A; read-out: KRAS G12D FRET data IC50
Sequence of KRAS G12D (P01116 1-169 isoform P01116-2 G12D limits assumed): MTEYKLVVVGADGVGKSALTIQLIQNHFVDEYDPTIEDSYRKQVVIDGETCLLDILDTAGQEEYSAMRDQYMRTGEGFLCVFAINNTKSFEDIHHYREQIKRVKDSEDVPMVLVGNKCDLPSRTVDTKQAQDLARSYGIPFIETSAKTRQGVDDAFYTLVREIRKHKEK
Sequence of KRAS G12D (P62937 whole entry): as the sequence (P62937 whole entry) above
Method in brief: as §1

KRAS G12V = KRAS G12V (Homo sapiens, UniProt P01116+P62937, G12V); details: Ras-Raf disruption, with Cyclophilin A; read-out: KRAS G12V FRET data IC50
Sequence of KRAS G12V (P01116 1-169 isoform P01116-2 G12V limits assumed): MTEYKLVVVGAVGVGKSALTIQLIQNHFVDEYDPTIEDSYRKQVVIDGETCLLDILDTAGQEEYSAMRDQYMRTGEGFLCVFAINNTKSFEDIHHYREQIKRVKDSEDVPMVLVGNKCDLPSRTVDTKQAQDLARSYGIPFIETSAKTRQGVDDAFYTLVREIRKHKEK
Sequence of KRAS G12V (P62937 whole entry): as the sequence (P62937 whole entry) above
Method in brief: as §1

KRAS Q61H = KRAS Q61H (Homo sapiens, UniProt P01116+P62937, Q61H); details: KRAS Q61H; read-out: KRAS Q61H FRET data IC50
Sequence of KRAS Q61H (P01116 1-169 isoform P01116-2 Q61H limits assumed): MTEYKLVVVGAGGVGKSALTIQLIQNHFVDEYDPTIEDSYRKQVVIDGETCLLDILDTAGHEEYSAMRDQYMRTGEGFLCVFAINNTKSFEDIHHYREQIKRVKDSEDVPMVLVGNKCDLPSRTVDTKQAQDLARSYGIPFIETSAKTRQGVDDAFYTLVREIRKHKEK
Sequence of KRAS Q61H (P62937 whole entry): as the sequence (P62937 whole entry) above
Method in brief: as §1

NRAS G12C = NRAS G12C (Homo sapiens, UniProt P01111+P62937, G12C); details: NRAS G12C; read-out: NRAS G12C FRET data IC50
Sequence of NRAS G12C (P01111 whole entry G12C): as the sequence (P01111 whole entry Q61K) above, with G12C, K61Q counted along it
Sequence of NRAS G12C (P62937 whole entry): as the sequence (P62937 whole entry) above
Method in brief: as §1

KRAS G13C = KRAS G13C (Homo sapiens, UniProt P01116+P62937, G13C); details: Ras-Raf disruption, with Cyclophilin A; read-out: KRAS G13C FRET data IC50
Sequence of KRAS G13C (P01116 1-169 isoform P01116-2 G13C limits assumed): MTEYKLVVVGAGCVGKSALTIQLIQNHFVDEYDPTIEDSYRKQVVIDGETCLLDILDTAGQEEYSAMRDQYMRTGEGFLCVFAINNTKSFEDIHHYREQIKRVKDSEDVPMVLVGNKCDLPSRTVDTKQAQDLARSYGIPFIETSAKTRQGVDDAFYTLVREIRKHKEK
Sequence of KRAS G13C (P62937 whole entry): as the sequence (P62937 whole entry) above
Method in brief: as §1

NRAS Q61R = NRAS Q61R (Homo sapiens, UniProt P01111+P62937, Q61R); details: NRAS Q61R; read-out: NRAS Q61R FRET data IC50
Sequence of NRAS Q61R (P01111 whole entry Q61R): as the sequence (P01111 whole entry Q61K) above, with K61R counted along it
Sequence of NRAS Q61R (P62937 whole entry): as the sequence (P62937 whole entry) above
Method in brief: as §1

Sequence of KRAS G12C (P01116 1-169 isoform P01116-2 G12C limits assumed): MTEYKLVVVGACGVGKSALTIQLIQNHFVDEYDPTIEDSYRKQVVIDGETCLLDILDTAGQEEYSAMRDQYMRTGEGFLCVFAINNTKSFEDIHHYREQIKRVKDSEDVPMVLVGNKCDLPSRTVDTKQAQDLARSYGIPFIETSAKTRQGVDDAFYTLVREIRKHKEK
Sequence of KRAS G12C (P62937 whole entry): as the sequence (P62937 whole entry) above

Structure (SMILES) | IC50 (KRAS G12C) [µM] | IC50 (KRAS G12S) [µM] | IC50 (KRAS G13D) [µM] | IC50 (KRAS WT) [µM] | IC50 (NRAS Q61K) [µM] | IC50 (NRAS WT) [µM] | IC50 (KRAS G12D) [µM] | IC50 (KRAS G12V) [µM] | IC50 (KRAS Q61H) [µM] | IC50 (NRAS G12C) [µM] | IC50 (KRAS G13C) [µM] | IC50 (NRAS Q61R) [µM]
CCn1c(-c2cccnc2[C@H](C)OC)c2c3cc(ccc31)-c1cc(O)cc(c1)C[C@H](NC(=O)[C@H](C(C)C)N(C)C(=O)[C@@H]1CCN(C(=O)[C@H]3CN3)C1)C(=O)N1CCC[C@H](N1)C(=O)OCC(C)(C)C2 (atropisomer, axis not shown) [Example 186] | < 0.01 | 0.01 to 0.1 | 0.01 to 0.1 | 0.01 to 0.1 | 0.1 to 1 | 0.01 to 0.1 | 0.01 to 0.1 | 0.01 to 0.1 | 0.01 to 0.1 | < 0.01 | 0.01 to 0.1 | 0.1 to 1
CCn1c(-c2cccnc2[C@H](C)OC)c2c3cc(ccc31)-c1cc(O)cc(c1)C[C@H](NC(=O)[C@H](C(C)C)N(C)C(=O)N(C)C1CN(C(=O)[C@H]3CN3)C1)C(=O)N1CCC[C@H](N1)C(=O)OCC(C)(C)C2 (atropisomer, axis not shown) [Example 203] | < 0.01 | 0.1 to 1 | 0.1 to 1 | 0.1 to 1 | 0.1 to 1 | 0.1 to 1 | 0.1 to 1 | 0.1 to 1 | 0.01 to 0.1 | < 0.01 | 0.01 to 0.1 | 0.1 to 1
CCn1c(-c2cccnc2[C@H](C)OC)c2c3cc(ccc31)-c1cc(O)cc(c1)C[C@H](NC(=O)[C@H](C(C)C)N(C)C(=O)N(C)CCN(C)C(=O)[C@H]1CN1)C(=O)N1CCC[C@H](N1)C(=O)OCC(C)(C)C2 (atropisomer, axis not shown) [Example 204] | < 0.01 | 0.01 to 0.1 | 0.01 to 0.1 | 0.01 to 0.1 | 0.1 to 1 | 0.01 to 0.1 | 0.1 to 1 | 0.01 to 0.1 | 0.01 to 0.1 | < 0.01 | 0.01 to 0.1 | 0.1 to 1
CCn1c(-c2cccnc2[C@H](C)OC)c2c3cc(ccc31)-c1cc(O)cc(c1)C[C@H](NC(=O)[C@H](C(C)C)N(C)C(=O)N1CCN(C(=O)[C@@H]3CN3)CC1=O)C(=O)N1CCC[C@H](N1)C(=O)OCC(C)(C)C2 (atropisomer, axis not shown) [Example 205] | 0.01 to 0.1 | 0.1 to 1 | 0.1 to 1 | 0.01 to 0.1 | 0.1 to 1 | 0.01 to 0.1 | 1 to 10 | 0.1 to 1 | 0.01 to 0.1 | 0.01 to 0.1 | < 0.01 | 0.1 to 1
CCn1c(-c2cccnc2[C@H](C)OC)c2c3cc(ccc31)-c1cc(O)cc(c1)C[C@H](NC(=O)[C@H](C(C)C)N(C)C(=O)[C@H]1CCN(C(=O)[C@H]3CN3)[C@H]1C)C(=O)N1CCC[C@H](N1)C(=O)OCC(C)(C)C2 (atropisomer, axis not shown) [Example 206] | 0.01 to 0.1 | 0.1 to 1 | 0.1 to 1 | 0.1 to 1 | 1 to 10 | 0.1 to 1 | 1 to 10 | 0.1 to 1 | 0.1 to 1 | 0.01 to 0.1 | 0.1 to 1 | 1 to 10
CCn1c(-c2cccnc2[C@H](C)OC)c2c3cc(ccc31)-c1cc(O)cc(c1)C[C@H](NC(=O)[C@H](C(C)C)N(C)C(=O)[C@@H]1CCN(C(=O)[C@H]3CN3)[C@@H]1C)C(=O)N1CCC[C@H](N1)C(=O)OCC(C)(C)C2 (atropisomer, axis not shown) [Example 207] | 0.01 to 0.1 | 0.01 to 0.1 | 0.1 to 1 | 0.01 to 0.1 | 0.1 to 1 | 0.01 to 0.1 | 0.1 to 1 | 0.01 to 0.1 | 0.01 to 0.1 | 0.01 to 0.1 | 0.01 to 0.1 | 0.1 to 1
CCn1c(-c2cccnc2[C@H](C)OC)c2c3cc(ccc31)-c1cc(O)cc(c1)C[C@H](NC(=O)[C@H](C(C)C)N(C)C(=O)[C@@H]1CCN(C(=O)[C@@H]3CN3)[C@@H]1C)C(=O)N1CCC[C@H](N1)C(=O)OCC(C)(C)C2 (atropisomer, axis not shown) [Example 208] | 0.01 to 0.1 | 0.01 to 0.1 | 0.1 to 1 | 0.01 to 0.1 | 0.1 to 1 | 0.01 to 0.1 | 0.1 to 1 | 0.01 to 0.1 | 0.01 to 0.1 | 0.01 to 0.1 | 0.01 to 0.1 | 0.1 to 1
CCn1c(-c2cccnc2[C@H](C)OC)c2c3cc(ccc31)-c1cc(O)cc(c1)C[C@H](NC(=O)[C@@H](COC1CCN(C(=O)[C@H]3CN3)CC1)C(C)C)C(=O)N1CCC[C@H](N1)C(=O)OCC(C)(C)C2 (atropisomer, axis not shown) [Example 211] | 0.01 to 0.1 | 1 to 10 | 1 to 10 | 0.1 to 1 | 1 to 10 | 0.1 to 1 | 1 to 10 | 1 to 10 | 0.1 to 1 | 0.01 to 0.1 | 0.1 to 1 | 1 to 10
CCn1c(-c2cccnc2[C@H](C)OC)c2c3cc(ccc31)-c1cc(O)cc(c1)C[C@H](NC(=O)[C@H](C(C)C)N(C)C(=O)c1nc(NC(=O)[C@H]3CN3)cs1)C(=O)N1CCC[C@H](N1)C(=O)OCC(C)(C)C2 (atropisomer, axis not shown) [Example 212] | 0.1 to 1 | 0.1 to 1 | 0.1 to 1 | 0.1 to 1 | 0.1 to 1 | 0.1 to 1 | 1 to 10 | 0.1 to 1 | 0.01 to 0.1 | 0.1 to 1 | 0.01 to 0.1 | 0.1 to 1
CCn1c(-c2cccnc2[C@H](C)OC)c2c3cc(ccc31)-c1csc(n1)C[C@H](NC(=O)[C@H](C(C)C)N(C)C(=O)N(C)CCN(C)C(=O)[C@H]1CN1)C(=O)N1CCC[C@H](N1)C(=O)OCC(C)(C)C2 (atropisomer, axis not shown) [Example 216] | 0.01 to 0.1 | 0.1 to 1 | 0.1 to 1 | 0.1 to 1 | 0.01 to 0.1 | 0.1 to 1 | 0.1 to 1 | 0.1 to 1 | 0.01 to 0.1 | 0.01 to 0.1 | 0.1 to 1 | 0.1 to 1
CCn1c(-c2cccnc2[C@H](C)OC)c2c3cc(ccc31)-c1csc(n1)C[C@H](NC(=O)[C@H](C(C)C)N(C)C(=O)N(C)CCN(C)C(=O)[C@@H]1CN1)C(=O)N1CCC[C@H](N1)C(=O)OCC(C)(C)C2 (atropisomer, axis not shown) [Example 217] | 0.01 to 0.1 | 0.1 to 1 | 0.1 to 1 | 0.1 to 1 | 0.01 to 0.1 | 0.01 to 0.1 | 0.1 to 1 | 0.1 to 1 | 0.01 to 0.1 | 0.01 to 0.1 | 0.1 to 1 | 0.1 to 1
CCn1c(-c2cccnc2[C@H](C)OC)c2c3cc(ccc31)-c1csc(n1)C[C@H](NC(=O)[C@H](C(C)C)N(C)C(=O)N1CC(N(C)C(=O)[C@H]3CN3)C1)C(=O)N1CCC[C@H](N1)C(=O)OCC(C)(C)C2 [Example 218] |  | 0.1 to 1 | 0.1 to 1 | 0.1 to 1 | 0.01 to 0.1 | 0.1 to 1 | 1 to 10 | 0.1 to 1 | 0.01 to 0.1 | 0.01 to 0.1 | 0.1 to 1 | 0.1 to 1
CCn1c(-c2cccnc2[C@H](C)OC)c2c3cc(ccc31)-c1cccc(c1)C[C@H](NC(=O)[C@H](C1CCCC1)N1CC[C@]3(CCN(C(=O)[C@@H]4N[C@@H]4C4CC4)C3)C1=O)C(=O)N1CCC[C@H](N1)C(=O)OCC(C)(C)C2 [Example 313] | 0.1 to 1 | 1 to 10 | 1 to 10 | 1 to 10 | 1 to 10 | 1 to 10 | 0.1 to 1 | 1 to 10 |  | 0.1 to 1 | 0.1 to 1 | 1 to 10
